Here are results for 18 compounds from patent US11407736B2 (priority 2019, dated 2022).

Structures can show the parent of a compound that is named as a salt. Where two headings read alike, the source gives them in different places.

One test has as its target RIPK1 (Homo sapiens (Human), UniProt Q13546). The test can be described thus: RIPK1 ADP-Glo biochemical kinase assay. The conditions noted are these: read-out: RIPK1 ADP-Glo Kinase (IC50). Here is the method:
The final reaction volume was 5.0ul.
Adding 5 μl of ADP-Glo™ terminated the reaction.
A general note: ADP-Glo turns the ADP formed in a reaction into a luminescent signal.

The test system of a further test is L929 cells. The test can be described thus: L929 cell necroptosis assay (TNFa + zVAD, CellTiter-Glo). The class given is cell-based, murine. Put shortly:
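Murine L929 cells, plated 18 h beforehand at 10K cells/well in RPMI 1640 with 10% FBS, were switched to medium containing 40 uM zVAD-fmk and given compound from 4-fold serial dilutions. Viability after 18 h of TNFa stimulation at 37° C was read by CellTiter-Glo luminescence.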

The next test has as its system U937 cells. The test can be described thus: U937 cell necroptosis assay (TNFa + zVAD, CellTiter-Glo). In kind it is cell-based, human. Summed up: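 Human U937 and murine L929 cells in RPMI 1640/10% FBS were pre-incubated 1 h at 37 °C with serially diluted compound plus zVAD-fmk (U937 plated with 60 uM, L929 medium with 40 uM), then stimulated with 2 ng/mL TNFa (final). Viability read by CellTiter-Glo luminescence after 18 h.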
For orientation: Cellular ATP, detected with luciferase, serves as a proxy for viable cell number.

Where [1] appears, read: Mus musculus, L929, L929 cells, TNFa + zVAD, read-out: L929-CTG-recovery, L929, TNFa + zVAD (IC50).
The mark [2] stands for this setting: Homo sapiens, U-937, U937 cells, TNFa + zVAD, read-out: U937 Zvad TNF CTG Recovery, U937, TNFa + zVAD (IC50).

Chain of RIPK1 (Q13546 whole entry, species assumed): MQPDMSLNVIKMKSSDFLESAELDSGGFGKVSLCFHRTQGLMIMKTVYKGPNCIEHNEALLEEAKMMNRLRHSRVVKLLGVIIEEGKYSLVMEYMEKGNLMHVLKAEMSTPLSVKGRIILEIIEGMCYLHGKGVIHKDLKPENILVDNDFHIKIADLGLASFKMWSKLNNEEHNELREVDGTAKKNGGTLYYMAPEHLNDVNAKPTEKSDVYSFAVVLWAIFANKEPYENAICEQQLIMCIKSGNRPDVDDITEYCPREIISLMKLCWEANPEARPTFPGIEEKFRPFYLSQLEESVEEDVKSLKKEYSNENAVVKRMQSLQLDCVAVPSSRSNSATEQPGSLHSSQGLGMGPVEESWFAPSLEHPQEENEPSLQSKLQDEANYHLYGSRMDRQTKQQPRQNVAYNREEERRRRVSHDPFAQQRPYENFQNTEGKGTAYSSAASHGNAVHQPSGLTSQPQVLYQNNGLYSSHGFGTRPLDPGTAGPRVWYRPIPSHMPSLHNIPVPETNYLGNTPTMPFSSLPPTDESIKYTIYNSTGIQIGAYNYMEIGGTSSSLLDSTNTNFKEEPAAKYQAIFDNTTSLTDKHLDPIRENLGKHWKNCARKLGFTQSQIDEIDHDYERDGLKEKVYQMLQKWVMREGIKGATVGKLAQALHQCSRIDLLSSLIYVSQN

Consider `CN1C(=O)[C@@H](NC(=O)c2cc(Oc3ccccc3)ccn2)COc2ccc(CCC(N)=O)cc21` [II-24, (S)—N-(7-(3-amino-3-oxopropyl)-5-methyl-4-oxo-2,3,4,5-tetrahydrobenzo[b][1,4]oxazepin-3-yl)-4-phenoxypicolinamide], for which the IC50 is 56.3 nM at RIPK1; 7910 nM in the test on L929 cells (Mus musculus, L929, read-out: L929-CTG-recovery, L929, TNFa + zVAD (IC50), L929 cells, TNFa + zVAD); 16.6 nM in the test on U937 cells (Homo sapiens, U-937, read-out: U937 Zvad TNF CTG Recovery, U937, TNFa + zVAD (IC50), U937 cells, TNFa + zVAD).

In the case of `CN1C(=O)[C@@H](NC(=O)c2cc(Oc3ccccc3)ccn2)COc2ccc(C#CC3(OC(=O)CCC(=O)O)COC3)cc21` [Compound I-165, (S)-4-((3-((5-methyl-4-oxo-3-(4-phenoxypicolinamido)-2,3,4,5-tetrahydrobenzo[b][1,4]oxazepin-7-yl)ethynyl)oxetan-3-yl)oxy)-4-oxobutanoic acid 2-amino-2-(hydroxymethyl)propane-1,3-diol salt], the IC50 is 11.2 nM at RIPK1; 47.1 nM in the test on L929 cells (L929 cells, TNFa + zVAD, read-out: L929-CTG-recovery, L929, TNFa + zVAD (IC50)); 0.9 nM in the test with U937 cells (U937 cells, TNFa + zVAD, read-out: U937 Zvad TNF CTG Recovery, U937, TNFa + zVAD (IC50)).

As to `CN1C(=O)[C@@H](NC(=O)c2cc(Oc3ccccc3)ccn2)COc2ccc(C#CC3(O)CCOCC3)cc21` [Compound I-123, (S)—N-(7-((4-hydroxytetrahydro-2H-pyran-4-yl)ethynyl)-5-methyl-4-oxo-2,3,4,5-tetrahydrobenzo[b][1,4]oxazepin-3-yl)-4-phenoxypicolinamide], the values for the IC50 on RIPK1, in the test with L929 cells (setting [1]) and with U937 cells (setting [2]) were 35.7 nM, 53.5 nM and 0.6 nM, respectively.

Regarding `CN1C(=O)[C@@H](NC(=O)c2n[nH]c(Cc3ccccc3)n2)COc2ccc(CCC(=O)Nc3ccc4cn[nH]c4c3)cc21` [Compound I-3, (S)—N-(7-(3-((1H-indazol-6-yl)amino)-3-oxopropyl)-5-methyl-4-oxo-2,3,4,5-tetrahydrobenzo[b][1,4]oxazepin-3-yl)-5-benzyl-1H-1,2,4-triazole-3-carboxamide], the IC50 was determined as 40.2 nM at RIPK1, 428 nM with L929 cells (setting [1]) and 4.9 nM in the test on U937 cells (setting [2]).

As for `CC(=O)N1CCC(O)(C#Cc2ccc3c(c2)N(C)C(=O)[C@@H](NC(=O)c2cc(Oc4ccc(F)cc4)ccn2)CO3)CC1` [Compound I-134, (S)—N-(7-((l-acetyl-4-hydroxypiperidin-4-yl)ethynyl)-5-methyl-4-oxo-2,3,4,5-tetrahydrobenzo[b][1,4]oxazepin-3-yl)-4-(4-fluorophenoxy)picolinamide], the IC50 on RIPK1 amounted to 52.8 nM; in the test with L929 cells (setting [1]), 608 nM; in the test with U937 cells (setting [2]) it was 27.4 nM.

For `CN1C(=O)[C@@H](NC(=O)c2ncn(Cc3c(Cl)cccc3Cl)n2)COc2ccc(CCC(=O)N3CCCC3)cc21` [Compound I-18, (S)-1-(2,6-dichlorobenzyl)-N-(5-methyl-4-oxo-7-(3-oxo-3-(pyrrolidin-1-yl)propyl)-2,3,4,5-tetrahydrobenzo[b][1,4]oxazepin-3-yl)-1H-1,2,4-triazole-3-carboxamide], the IC50 at RIPK1 stood at 164 nM; in the test with L929 cells (setting [1]) it was 280 nM; in the test with U937 cells (setting [2]) it was 1.3 nM.

Regarding `C[C@H](N)C(=O)OC1(C#Cc2ccc3c(c2)N(C)C(=O)[C@@H](NC(=O)c2cc(Oc4ccccc4)ccn2)CO3)COC1` [Compound I-194, 3-(((S)-5-methyl-4-oxo-3-(4-phenoxypicolinamido)-2,3,4,5-tetrahydrobenzo[b][1,4]oxazepin-7-yl)ethynyl)oxetan-3-yl L-alaninate trifluoroacetic acid salt], the IC50 on RIPK1 is 18.6 nM; with L929 cells (Mus musculus, L929 cells, TNFa + zVAD, read-out: L929-CTG-recovery, L929, TNFa + zVAD (IC50)) it was 32.5 nM; in the test with U937 cells (setting [2]), 0.6 nM.

For `CN1C(=O)[C@@H](NC(=O)c2n[nH]c(Cc3ccccc3F)n2)COc2ccc(C#CC(C)(C)O)cc21` [Compound I-80, (S)-5-(2-fluorobenzyl)-N-(7-(3-hydroxy-3-methylbut-1-yn-1-yl)-5-methyl-4-oxo-2,3,4,5-tetrahydrobenzo[b][1,4]oxazepin-3-yl)-1H-1,2,4-triazole-3-carboxamide], the IC50 was 20.6 nM on RIPK1, 0.7 nM in the test with L929 cells (setting [1]) and 2.7 nM in the test on U937 cells (setting [2]).

As for `CN1C(=O)[C@@H](NC(=O)c2n[nH]c(Cc3ccccc3)n2)COc2cc(CN3CCn4nc(C(F)(F)F)nc4C3)ccc21` [Compound I-66, (S)-5-benzyl-N-(5-methyl-4-oxo-8-((2-(trifluoromethyl)-5,6-dihydro-[1,2,4]triazolo[1,5-a]pyrazin-7(8H)-yl)methyl)-2,3,4,5-tetrahydrobenzo[b][1,4]oxazepin-3-yl)-1H-1,2,4-triazole-3-carboxamide], the IC50 at RIPK1 came out at 79.4 nM; in the test with L929 cells (setting [1]), 94.9 nM; in the test on U937 cells (setting [2]), 189 nM.

In the case of `CN1C(=O)[C@@H](NC(=O)c2cc(Oc3ccccc3)ccn2)COc2ccc(C#CCO)cc21` [II-35, (S)—N-(7-(3-hydroxyprop-1-yn-1-yl)-5-methyl-4-oxo-2,3,4,5-tetrahydrobenzo[b][1,4]oxazepin-3-yl)-4-phenoxypicolinamide], the figures for the IC50 on RIPK1, in the test on L929 cells (setting [1]) and in the test on U937 cells (setting [2]) were 27.5 nM, 164 nM and 0.7 nM, respectively.

Regarding `CN1C(=O)[C@@H](NC(=O)c2n[nH]c(Cc3ccccc3)n2)COc2ccc(C#CC(C)(C)C)cc21` [Compound I-49, (S)-5-benzyl-N-(7-(3,3-dimethylbut-1-yn-1-yl)-5-methyl-4-oxo-2,3,4,5-tetrahydrobenzo[b][1,4]oxazepin-3-yl)-1H-1,2,4-triazole-3-carboxamide], the values for the half-maximal inhibitory concentration (IC50) at RIPK1, in the test on L929 cells (setting [1]) and with U937 cells (setting [2]) were 60.4 nM, 1.2 nM and 5 nM, respectively.

On to `C=C(C)C#Cc1ccc2c(c1)NC(=O)[C@@H](NC(=O)c1n[nH]c(Cc3ccccc3)n1)CO2` [Compound I-93, (S)-5-benzyl-N-(7-(3-methylbut-3-en-1-yn-1-yl)-4-oxo-2,3,4,5-tetrahydrobenzo[b][1,4]oxazepin-3-yl)-1H-1,2,4-triazole-3-carboxamide], for which the IC50 is 64.1 nM on RIPK1, 921 nM in the test with L929 cells (setting [1]) and 3240 nM in the test on U937 cells (setting [2]).

On to `CN1C(=O)[C@@H](NC(=O)c2n[nH]c(Cc3ccccc3)n2)COc2ccc(CCCCNc3ccccn3)cc21` [Compound I-17, (S)-5-benzyl-N-(5-methyl-4-oxo-7-(4-(pyridin-2-ylamino)butyl)-2,3,4,5-tetrahydrobenzo[b][1,4]oxazepin-3-yl)-1H-1,2,4-triazole-3-carboxamide], for which the IC50 on RIPK1 stood at 491 nM; in the test with L929 cells (setting [1]), 368 nM; in the test with U937 cells (setting [2]), 2.4 nM.

Take `CN1C(=O)[C@@H](NC(=O)c2ncn(Cc3ccccc3)n2)COc2cc(C#CC(C)(C)O)ccc21` [Compound I-62, (S)-1-benzyl-N-(8-(3-hydroxy-3-methylbut-1-yn-1-yl)-5-methyl-4-oxo-2,3,4,5-tetrahydrobenzo[b][1,4]oxazepin-3-yl)-1H-1,2,4-triazole-3-carboxamide]: the IC50 on RIPK1 stood at 35.5 nM; in the test with L929 cells (setting [1]), 0.7 nM; with U937 cells (setting [2]), 2 nM.

In the case of `CCN(C(=O)c1n[nH]c(Cc2ccccc2)n1)[C@H]1COc2ccc(C#CC(C)(C)O)cc2N(C)C1=O` [Compound I-86, (S)-5-benzyl-N-ethyl-N-(7-(3-hydroxy-3-methylbut-1-yn-1-yl)-5-methyl-4-oxo-2,3,4,5-tetrahydrobenzo[b][1,4]oxazepin-3-yl)-1H-1,2,4-triazole-3-carboxamide], the results for the IC50 on RIPK1, with L929 cells (setting [1]) and with U937 cells (setting [2]) were 616 nM, 0.6 nM and 4.1 nM, respectively.

For the compound `CN1C(=O)[C@@H](NC(=O)c2ncn(Cc3ccccc3)n2)COc2cc(CN3CCn4nc(C(F)(F)F)nc4C3)ccc21` [Compound I-67, (S)-1-benzyl-N-(5-methyl-4-oxo-8-((2-(trifluoromethyl)-5,6-dihydro-[1,2,4]triazolo[1,5-a]pyrazin-7(8H)-yl)methyl)-2,3,4,5-tetrahydrobenzo[b][1,4]oxazepin-3-yl)-1H-1,2,4-triazole-3-carboxamide], the IC50 on RIPK1 was 41.5 nM; with L929 cells (setting [1]), 8.5 nM; in the test with U937 cells (setting [2]), 15.2 nM.

With `CN1C(=O)[C@@H](NC(=O)c2cc(Oc3ccccc3)ccn2)COc2ccc(C#CCN3CCOCC3)cc21` [Compound I-117, (S)—N-(5-methyl-7-(3-morpholinoprop-1-yn-1-yl)-4-oxo-2,3,4,5-tetrahydrobenzo[b][1,4]oxazepin-3-yl)-4-phenoxypicolinamide], the IC50 came out at 31.6 nM on RIPK1, 11.2 nM in the test on L929 cells (setting [1]) and 0.2 nM with U937 cells (setting [2]).

Turning to `CN1C(=O)[C@@H](NC(=O)n2ccc(Cc3ccc(F)cc3)n2)COc2ccc(C#CC3(O)CCC3)cc21` [Compound I-223, (S)-3-(4-Fluorobenzyl)-N-(7-((1-hydroxycyclobutyl)ethynyl)-5-methyl-4-oxo-2,3,4,5-tetrahydrobenzo[b][1,4]oxazepin-3-yl)-1H-pyrazole-1-carboxamide], the IC50 on RIPK1 stood at 141 nM; in the test on L929 cells (setting [1]) it was 10300 nM; with U937 cells (setting [2]), 627 nM.

The term IC50 denotes the midpoint of a concentration-inhibition curve.
